Results reported in patent US12097179B2, “Carbazole derivatives for the treatment of fibrotic diseases and related symptoms, and conditions thereof” (Raziel Therapeutics Ltd., priority 2015, dated 2024).

Key:
scar formation in pigs = assay: Remote effect of local s.c. fat injection on scar formation in pigs (RZL-012 vs Kythera/Kybella); type: in vivo; conditions: pig; for Collagen fibers in scar-tissue (H & E histology): compared with Kythera scar tissue
Description: The objective of this study is to evaluate the remote effect on local injection of RZL-012 of the invention (5-(3,6-dibromo-9H-carbazol-9-yl)-N,N,N-trimethylpentan-1-aminium) into the s.c. fat, on scar formation in pigs, compared with Kybella (an injectable formulation of Deoxycholate developed by Kythera) an agent that bluntly destroys s.c. fat.
• 1. Kythera preparation (according to published formulation): an aqueous solution of 5% Phosphatidylcholine, 4.75% Sodium deoxycholate and 0.9% Benzyl Alcohol. • 2. RZL-012 of the invention (5-(3,6-dibromo-9H-carbazol-9-yl)-N,N,N-trimethylpentan-1-aminium) of the invention preparation: 5.0% (w/v) RZL-012 in the below indicated formulation: […]
Eighty kilogram pigs were injected with either Kythera or RZL-012 of the invention preparation, into the s.c. fat (1 cm depth, 27 G needle), at 10 sites, divided into two clusters, on the right flank only. The injection at each site was of a volume of 0.5 ml. In addition, a cut through the s.c. fat was made at the midline of each pig at the right and at the left flank.
Animals were housed in the animal unit of Biotechfarm, Israel and fed on a diet weighing 2% of body weight (B.W.) per day divided to two meals, based on the last effective weekly body weighing.
After 2 months from the day of treatment, the animals were sacrificed; the scars on both sides were photographed before and after making a cross section in the middle of each scar. Thereafter, tissue samples of all cross-sections were formalin-fixed and processed for H & E histology staining.

kidney fibrosis = assay: Unilateral ureteral ligation (UUO) kidney fibrosis model; type: in vivo, rat; conditions: male SD rats, RZL-012 15 mg s.c. into fat at Day 14 and Day 42, sacrifice 8 weeks after UUO, vs Vehicle
Description: • Animals: Male SD Rats, 250 g. • Induction of kidney fibrosis: Overnight fasted rats were anesthetized (a mixture of Ketamine 20 mg/kg and Xylazin 2 mg/kg IP). The abdominal cavity was exposed via a midline incision up to 0.5-1 cm before penis about 3 cm along. Then the bladder was lifted out and epididymal fat was remoted. The left ureter was ligated at two points with 4-0 sutures. The wound was closed in layers with the same sutures. Then animals were returned to the cages. […] The tissue sections were stained with Masson-Trichrome which enable a distinction between fibrotic tissue (staining collagen fiber in Blue) and normal viable tissue (Purple-Red) (see FIG. 6C). • Quantification of kidney fibrosis: In order to quantify, in an unbiased way, the fibrotic response in RZL-treated vs. non-treated rats, the dimensions of the fibrotic layer surrounding aortic blood vessel, were measured. All aortic vessels in each affected kidney were analyzed in the following way: The vessel wall consists of two components, the usual Muscular layer and an outer layer, excessively rich in collagen, in these kidneys, hereby defined as “Adventitia” (FIG. 6C). The net width of the adventitia and that of the Muscular layer were calculated as follows: […]

C[N+](C)(C)CCCCCn1c2ccc(Br)cc2c2cc(Br)ccc21 [RZL-012, 5-(3,6-dibromo-9H-carbazol-9-yl)-N,N,N-trimethylpentan-1-aminium]
Macroscopic view of the scar at the left, non-treated side (scar formation in pigs; 2 months after s.c. fat injection on right flank only, external view, compared with Kythera treated pig): much finer | Scar tissue seen after a cross section through the scar (macroscopic) (scar formation in pigs; 2 months sacrifice, cross-section through the middle of the scar, non-treated side (L)): no apparent scare tissue was observed | Difference in the scar tissue width (scar formation in pigs; 2 months, H & E histology, careful measurement, RZL-012 vs Kythera treated pig): 4-5 times | Collagen fibers in scar-tissue (H & E histology) (scar formation in pigs; 2 months, X20 objective magnification): less collagen fibers | Collagen fibers in scar-tissue (H & E histology) (scar formation in pigs; 2 months, X40 objective magnification): less collagen fibers | Width of fibrotic tissue (scar histology, H & E) (scar formation in pigs; 2 months, both sides, X10 objective magnification, RZL-012 vs Kythera treated pig): much thinner | Kidney fibrosis (Adventitia/Muscular layers ratio, Masson-Trichrome) (kidney fibrosis): significant inhibition of kidney fibrosis
